From patent US10160762B2, “6-alkyl dihydropyrazolopyrimidinone compounds as PDE2 inhibitors” (Merck Sharp & Dohme Corp., priority 2015, dated 2018) come the findings set out here.

The target of the assay is T1, Rhesus PDE2A3 (Macaca mulatta, UniProt B3VTJ2).
T1 construct: made in house; host or cells: AD293 cells, transient transfection; supernatant of sonicated lysate
T1 sequence (B3VTJ2 1-941): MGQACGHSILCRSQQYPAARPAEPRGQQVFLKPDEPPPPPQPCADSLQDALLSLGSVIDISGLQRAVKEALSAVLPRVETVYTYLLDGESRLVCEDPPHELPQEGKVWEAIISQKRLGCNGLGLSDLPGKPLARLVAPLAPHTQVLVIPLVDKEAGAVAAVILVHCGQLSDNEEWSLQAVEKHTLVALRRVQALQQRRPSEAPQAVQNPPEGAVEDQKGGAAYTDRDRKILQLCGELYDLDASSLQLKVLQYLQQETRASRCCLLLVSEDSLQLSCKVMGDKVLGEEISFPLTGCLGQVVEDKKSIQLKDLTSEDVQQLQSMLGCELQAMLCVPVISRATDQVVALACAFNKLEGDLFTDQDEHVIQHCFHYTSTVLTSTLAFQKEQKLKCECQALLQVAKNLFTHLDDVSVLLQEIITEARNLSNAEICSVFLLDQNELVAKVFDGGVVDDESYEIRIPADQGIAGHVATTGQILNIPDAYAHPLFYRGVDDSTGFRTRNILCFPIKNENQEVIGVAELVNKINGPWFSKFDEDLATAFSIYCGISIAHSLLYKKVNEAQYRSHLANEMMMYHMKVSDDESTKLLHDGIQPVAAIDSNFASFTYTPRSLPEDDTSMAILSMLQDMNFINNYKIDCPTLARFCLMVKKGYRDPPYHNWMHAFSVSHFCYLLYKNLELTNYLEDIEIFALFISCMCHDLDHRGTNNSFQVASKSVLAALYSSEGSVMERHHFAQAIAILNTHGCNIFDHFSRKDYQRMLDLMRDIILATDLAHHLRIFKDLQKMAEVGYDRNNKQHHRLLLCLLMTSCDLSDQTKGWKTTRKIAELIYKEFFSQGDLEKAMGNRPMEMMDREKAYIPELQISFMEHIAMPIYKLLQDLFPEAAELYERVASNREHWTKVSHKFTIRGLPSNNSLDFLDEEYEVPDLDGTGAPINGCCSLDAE
Put plainly: PDE2 fluorescence polarization (IMAP FP) inhibition assay, rhesus PDE2A3. The format is biochemical, rhesus macaque. The conditions noted are these: Lab B; read-out: Rhesus PDE2 Ki (nM) Lab B. In outline:
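Enzyme source was the lysate supernatant of AD293 cells transiently expressing rhesus PDE2A3, diluted to give 20% conversion of 50 nM FAM-cAMP, with 1 µM cGMP as activator. Buffer was 10 mM Tris pH 7.2, 10 mM MgCl2, 1 mM DTT.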

`Cc1nc2c(c(CF)nn2C(c2ccc(OC(F)(F)F)cc2)C2CC2)c(=O)[nH]1` (single isomer, unassigned) [Example 224, (R)- or (S)-1-(Cyclopropyl(4-(trifluoromethoxy)phenyl)methyl)-3-(fluoromethyl)-6-methyl-1,5-dihydro-4H-pyrazolo[3,4-d]pyrimidin-4-one]: the inhibition constant Ki was determined as 0.94 nM. On to `Cc1nc2c(c(CC(F)F)nn2C(C)c2ccc(C(F)(F)F)cc2)c(=O)[nH]1` (single isomer, unassigned) [Example 286], for which the inhibitory constant (Ki) came to 3.7 nM. In the case of `Cc1nc2c(c(CO)nn2C(c2ccc(C(F)(F)F)c(F)c2)C2CC2)c(=O)[nH]1` (single isomer, unassigned) [Example 90, (R)- or (S)-1-(Cyclopropyl(3-fluoro-4-(trifluoromethyl)phenyl)methyl)-3-(hydroxymethyl)-6-methyl-1H-pyrazolo[3,4-d]pyrimidin-4(5H)-one] it was 90 nM; in that of `Cc1nc2c(c(/C=N\O)nn2C(C)c2ccc(C(F)(F)F)cc2)c(=O)[nH]1` (stereo not drawn) [Example 251, (Z)-6-Methyl-4-oxo-1-(1-(4-(trifluoromethyl)phenyl)ethyl)-4,5-dihydro-1H-pyrazolo[3,4-d]pyrimidine-3-carbaldehyde oxime], 8.9 nM.

In the case of `COc1ccc(Cc2nc3c(c(CF)nn3C(C)c3ccc(C(F)(F)F)cc3)c(=O)[nH]2)cc1` (single isomer, unassigned) [Example 219, (S)- or (R)-3-(Fluoromethyl)-6-(4-methoxybenzyl)-1-(1-(4-(trifluoromethyl)phenyl)ethyl)-1H-pyrazolo[3,4-d]pyrimidin-4(5H)-one], the Ki turned out to be 0.87 nM. For `Cc1nc2c(c(CO)nn2C(c2ccc(C(C)(C)C)cc2)C2CC2)c(=O)[nH]1` (single isomer, unassigned) [Example 88, (R)- or (S)-1-((4-tert-Butylphenyl)(cyclopropyl)methyl)-3-(hydroxymethyl)-6-methyl-1H-pyrazolo[3,4-d]pyrimidin-4(5H)-one], the inhibition constant Ki was determined as 51 nM. In the case of `Cc1nc2c(c(CO)nn2C(C)c2ccc(C(F)(F)F)cc2Cl)c(=O)[nH]1` (single isomer, unassigned) [Example 19, (S)- or (R)-1-(1-(2-Chloro-4-(trifluoromethyl)phenyl)ethyl)-3-(hydroxymethyl)-6-methyl-1H-pyrazolo[3,4-d]pyrimidin-4(5H)-one] it was 1.9 nM.

As to `Cc1nc2c(c(CO)nn2C(C)c2ccc(S(F)(F)(F)(F)F)cc2)c(=O)[nH]1` (single isomer, unassigned) [Example 77], the Ki turned out to be 4.2 nM.

`Cc1nc2c(c(CO)nn2C(c2ccc(OC(F)(F)F)c(F)c2)C2CC2)c(=O)[nH]1` (single isomer, unassigned) [Example 92, (R)- or (S)-1-(Cyclopropyl(3-fluoro-4-(trifluoromethoxy)phenyl)methyl)-3-(hydroxymethyl)-6-methyl-1H-pyrazolo[3,4-d]pyrimidin-4(5H)-one]: the Ki was determined as 10 nM.

Turning to `Cc1nc2c(c(C=O)nn2C(C)c2ccc(C(F)(F)F)cc2)c(=O)[nH]1` (stereo not drawn) [Example 248, 6-Methyl-4-oxo-1-(1-(4-(trifluoromethyl)phenyl)ethyl)-4,5-dihydro-1H-pyrazolo[3,4-d]pyrimidine-3-carbaldehyde], the inhibitory constant (Ki) turned out to be 53 nM. Under `Cc1nc2c(c(CC(F)F)nn2C(C)c2ccc(C(F)(F)F)cc2)c(=O)[nH]1` (single isomer, unassigned) [Example 285] stands 179 nM; under `Cc1nc2c(c(C#N)nn2C(C)c2ccc(C(F)(F)F)cc2)c(=O)[nH]1` (single isomer, unassigned) [Example 252], 20 nM.

As a reminder, the Ki is a dissociation constant, usually derived from enzyme kinetics or from competition with a known ligand.
